Laboratory results from patent publication US7754720B2, “Pyridazine compound and use thereof” (priority 2006, dated 2010).
In brackets after ≈: the same amount, converted by molar mass. Where two headings read alike, the source gives them in different places.

How the values were obtained:
[1] = Intrinsic and pH solubility profile; type: physicochemical
[2] = tested on: HCV replicon; test: Anti-HCV replicon activity compared with prior art compound of formula (4); type: cell-based, hepatitis C virus
Source text: The anti-HCV replicon activity of compound (1) was compared to that of a prior art (WO 05/063744) compound, the compound of formula (4)

[3] = log P; type: physicochemical; settings: product of example 1b
[4] = physchem; type: physicochemical; settings: pH 6.4, fassif
[5] = pKa; type: physicochemical; settings: product of example 1b
[6] = Cytotoxicity, CellTiter-Glo Luminescence Cell Viability assay, Huh-7 lucneo; settings: human, Huh-7 lucneo cells (HCV replicon-containing)
Description: (§1) Compound (1) was evaluated for its cytotoxicity in a variety of cell types including HCV replicon-containing cell lines (Huh-7, SL3 and MH4) and non-replicon-containing cell lines (HepG2, MT4), using a CellTiter-Glo Luminescence Cell Viability assay (Promega).

[7] = in vivo
Source text: (§2) A randomized, double-blind, placebo controlled trial was designed to evaluate the safety/tolerability, phamacokinetics and antiviral activity of single (in Part A) and multiple (in Part B) doses of Compound (1) (oleic acid solution, above) in subjects chronically infected with HCV genotype 1 (GT-1) without decompensated cirrhosis.
(§3) In completed Part A, five successive cohorts of 6 subjects were randomized (5:1) to receive single ascending doses of Compound 1 (40, 120, 240, 240-with food, or 480 mg) or placebo. In ongoing Part B, four successive cohorts of 12 subjects are randomized (10:2) to receive multiple ascending doses of Compound 1 (40 mg BID, 120 mg BID, 240 mg QD, 240 mg BID) or placebo, over 8 days.

[8] = tested on: HCV genotype 1a (H77/neo) replicon; test: HCV genotype 1a (H77/neo) replicon, quantitative real-time PCR assay; type: cell-based; settings: Hepatitis C virus, 72 h, 3 days
Description: (§4) HCV genotype 1b (Con-1/lucneo) and 1a (H77/neo) replicon cells were incubated with serial dilutions of compound (1) 2′C-methyl adenosine (2′CMeA) or IFNα for 3 days in the absence or presence of 40 mg/mL human serum albumin (HSA).

[9] = Cytotoxicity, CellTiter-Glo Luminescence Cell Viability assay, SL3; settings: human, SL3 cells (HCV replicon-containing)
Description: as §1

[10] = Phase-1 first-in-human trial, pharmacokinetics; settings: in vivo
Source text: as §2, §3

[11] = Cytotoxicity, CellTiter-Glo Luminescence Cell Viability assay, MH4; settings: mouse, MH4 cells (HCV replicon-containing)
Description: as §1

[12] = tested on: HCV replicon cells; test: In vitro combination study with IFN-α in replicon cells (MacSynergy); type: cell-based, hepatitis C virus; settings: MacSynergy analysis
Description: Pegylated interteron-α (PEG-IFN-α), in combination with ribavirin, represents the current standard of care for HCV-infected patients. In vitro combination studies of compound (1) and IFN-α were performed in replicon cells. Data was analyzed using the MacSynergy template developed by Prichard and Shipman.

[13] = tested on: HCV genotype 1b (Con-1/lucneo) replicon; test: microbe, parasite or virus in culture; type: cell-based; settings: Hepatitis C virus
Description: as §4

[14] = in vitro; settings: human
Description: as §1

[15] = tested on: HCV 2a subgenomic replicon; test: HCV genotype 2a subgenomic replicon in Huh-7 cells, NS3 protease activity by time-resolved fluorescence; type: cell-based, hepatitis C virus; settings: compared with genotypes 1a and 1b
Description: (§5) The antiviral activity of compound (1) against HCV genotype 2a was tested in cells chronically infected with the genotype 2a virus as well as in cells replicating a subgenomic 2a replicon. Huh-7 cells containing chronically replicating HCV genotype 2a (J6/JFH-Rluc) virus or subgenomic replicons were cultured with compound (1) or 2′CMeA for 3 days in the absence of human serum albumin. After cultivation, the amount of luciferase in 2a-virus containing cells and HCV NS3 protease activity in the 2a replicon-containing cells was determined using Promega's luciferase assay and a novel time-resolved fluorescence assay, respectively.

[16] = tested on: HCV genotype 2a (J6/JFH-Rluc) virus; test: Huh-7 cells chronically infected with HCV genotype 2a reporter virus, luciferase assay; type: cell-based; settings: Hepatitis C virus, Huh-7, 72 h, read-out: EC50, HCV-2a chronically infected cell culture model
Description: as §5

[17] = in vitro; settings: human; remark: listed apart in the source
Description: as §1

Fc1ccccc1-c1nc2ccn(Cc3ccc(-c4ccc(C(F)(F)F)cc4C(F)(F)F)nn3)cc-2n1 [Compound (1), 5-({6-[2,4-bis(trifluoromethyl)phenyl]pyridazin-3-yl}methyl)-2-(2-fluorophenyl)-5H-imidazo[4,5-c]pyridine]
pH solubility profile at pH 7.3 ([1]; geometric mean (3 lots), pH 7.3): 0.7 micrograms/ml
solubility ([1]; product of example 1b): 0.7 µg/mL (≈ 1.35 µM)
potency relative to the compound of formula (4) [2]: about 330 times
logP [3]: 2.8
solubility [4]: 19.1 µg/mL (≈ 36.9 µM)
pKa [5]: 5.8
CC50 [6]: > 50000 nM
Grade 3 or 4 treatment emergent laboratory abnormalities ([7]; human): no Grade 3 or 4 treatment emergent laboratory abnormalities
most common adverse event [7]: headache
serious or treatment-limiting adverse events [7]: no serious or treatment-limiting adverse events
severity of adverse events [7]: All AEs were mild in severity, with the exception of one moderate headache
tolerability of single doses [7]: well tolerated
EC50 [8]: 3.6 nM
CC50 [9]: > 50000 nM
half-life [10]: 10 to 15 h
increase of systemic exposure with a high fat meal [10]: approximately 2 fold
CC50 [11]: > 50000 nM
interaction with IFN-α in combination [12]: additive interaction
EC50 ([13]; 72 h, read-out: EC50 HCV 1b-lucneo 40 mg/mL HSA, 3 days, presence of 40 mg/mL human serum albumin): 11 nM
EC50 ([13]; 72 h, 3 days, absence of human serum albumin, read-out: EC50 HCV 1b-lucneo (subgenomic replicon)): 0.6 nM
EC50 ([13]; Huh-7, read-out: EC50, Huh-7 cells replicating an HCV-1b subgenomic replicon): 0.6 nM
EC50 ([13]; read-out: EC50 in HCV-1b and HCV-1a replicons): 0.62 to 3.6 nM
CC50 [14]: > 50000 nM
activity against genotype 2a [15]: substantially less active
EC50 [16]: 2900 nM
CC50 [17]: > 50000 nM
